Results: patent US4096252A, “4-Trifluoromethylbenzoic acid derivatives as thromboembolic agents” (priority 1976, dated 1978)
Like-named read-outs stand apart in the source and are kept apart here.

Key:
gastric mucosa = details: rat, in vivo
Method: For this reason this compound has not been included in further in vivo experimentation. However, the other two compounds were well tolerated and satisfactory low acute toxicity values were found (approximately 500 mg/kg for both substances).

[1] = system: human platelet aggregation; test: In vitro inhibition of human platelet aggregation (Born and Cross method); assay type: cell-based; details: read-out: Platelet Aggregation Inhibition (PAI); for inhibition at 8300 µM: plasma concentration 8.30×10^-3 molar
Method: Platelet aggregation was measured according to the method of Born and Cross (8) by using rat and human plasma. The results are summarized below in Tables I and II.
Key : PC = Plasma Concentration: PAI = Platelet Aggregation
*The percent of inhibition was calculated using the method described by
McKenzie (Proc. Soc. Exp. Biol. Med. 137: 662, 1971).

rat platelet aggregation = test: In vitro inhibition of rat platelet aggregation (Born and Cross method); assay type: cell-based; details: Rattus norvegicus, Platelet, rat plasma, read-out: Platelet Aggregation Inhibition (PAI); for inhibition at 8300 µM: plasma concentration 8.30×10^-3 molar
Method: Platelet aggregation was measured according to the method of Born and Cross (8) by using rat and human plasma.

O=C(O)c1ccc(C(F)(F)F)cc1O [2-hydroxy-4-trifluoromethylbenzoic acid]
gastro-intestinal disturbances (in words) (gastric mucosa): high incidence of serious gastro-intestinal disturbances, including bleeding of the gastric mucosa and peptic ulcers
inhibition at 6250 µM ([1]; ADP 1.6×10^-6 M, plasma concentration 6.25×10^-3 molar): 70%
inhibition at 8300 µM ([1]; ADP 1.6×10^-6 M): 100%
inhibition at 8300 µM ([1]; Collagen 33.3 mcg/ml): 58%
inhibition at 17000 µM ([1]; Collagen 33.3 mcg/ml, plasma concentration 17.0×10^-3 molar): 75%
inhibition at 3300 µM ([1]; Epinephrine 1.4×10^-6 M, plasma concentration 3.30×10^-3 molar): 32%
inhibition at 8100 µM ([1]; Epinephrine 1.4×10^-6 M, plasma concentration 8.10×10^-3 molar): 91%
inhibition at 6250 µM (rat platelet aggregation; ADP 4.1×10^-6 M, plasma concentration 6.25×10^-3 molar): 60.2%
inhibition at 8300 µM (rat platelet aggregation; ADP 4.1×10^-6 M): 89.2%
inhibition at 4150 µM (rat platelet aggregation; Collagen 33.3 μg/ml, plasma concentration 4.15×10^-3 molar): 27.2%
inhibition at 8300 µM (rat platelet aggregation; Collagen 33.3 μg/ml): 48.3%
